Assay results as given in EP1940519B1, “Pharmaceutical composition comprising artesunate, sulfamethoxypyrazine and pyrimethamine for use in the treatment of malaria within one day” (Dafra Pharma N.V., priority 2005, dated 2007).

Experiments:
[1] = in vivo
Experimental: Treatment safety was assessed clinically as well as by measuring hematological indices and serum creatinine and hepatic transaminase concentrations. The sample size was computed assuming equal efficacy of the two treatments, and 606 patients (303 in each treatment arm) were enrolled over two consecutive malaria transmission seasons.

[2] = test system: uncomplicated falciparum malaria; conditions: area of multi-drug resistance, Thai-Burmese border; cited from earlier work
[3] = fatty meal (approximately 30 g of fat) versus low-fat meal; with artesunate 8 mg/kg and mefloquine 15 mg/kg over 12h; cited from earlier work
[4] = test system: Plasmodium falciparum malaria; conditions: India; number among the 89 subjects who completed the study; cited from earlier work

Compound: artemether-lumefantrine
- mild and transient elevation of transaminases [1]: 0/72

Compound: OC(c1cc(C(F)(F)F)nc2c(C(F)(F)F)cccc12)C1CCCCN1 (stereo not shown) [MQ, mefloquine]
- Overall failure rates by day 28 [2]: 24%
- bioavailability of mefloquine [3]: does not appear to increase the bioavailability

Compound: CCN(CC)CCCC(C)Nc1ccnc2cc(Cl)ccc12 (stereo not shown) [chloroquine]
- treatment failures [4]: 46
